Read-outs that look alike come from different tables or passages of the source.
Key:
Lck = Lck (Homo sapiens, UniProt P06239); settings: reported in ref [51]; cited from earlier work
[1] = system: TCR-induced phosphotyrosine incorporation into TCR p23 ζ-chain and a 70 kDa protein, Jurkat cells; assay type: cell-based; settings: FIG. 7C
Protocol: Phosphotyrosine western blotting. […] Cells were then transferred to 37° C. water bath for 1 minute. Stimulation was stopped by the addition of 5 volumes of cold PBS containing 200 μM sodium orthovanadate. Cells were spun down and lysed in 150 mM Tris/10 mM HEPES buffer, pH 7.3, containing 1% Triton X-100 and Complete protease inhibitor cocktail (Boehringer Mannheim, Germany) for 30 minutes on ice. […] Blots were probed with anti-phosphotyrosine (4G10, Upstate Biotechnology, Inc., Saranac Lake, N.Y.) and developed using ECL-plus following the manufacturers directions (Amersham, Arlington Heights, Ill.).

ZAP-70 = biological target: T1, ZAP-70 (Homo sapiens, UniProt P43403); settings: reported in ref [51]; read-out: IC50 against ZAP-70; cited from earlier work
T1 sequence (P43403 1-619): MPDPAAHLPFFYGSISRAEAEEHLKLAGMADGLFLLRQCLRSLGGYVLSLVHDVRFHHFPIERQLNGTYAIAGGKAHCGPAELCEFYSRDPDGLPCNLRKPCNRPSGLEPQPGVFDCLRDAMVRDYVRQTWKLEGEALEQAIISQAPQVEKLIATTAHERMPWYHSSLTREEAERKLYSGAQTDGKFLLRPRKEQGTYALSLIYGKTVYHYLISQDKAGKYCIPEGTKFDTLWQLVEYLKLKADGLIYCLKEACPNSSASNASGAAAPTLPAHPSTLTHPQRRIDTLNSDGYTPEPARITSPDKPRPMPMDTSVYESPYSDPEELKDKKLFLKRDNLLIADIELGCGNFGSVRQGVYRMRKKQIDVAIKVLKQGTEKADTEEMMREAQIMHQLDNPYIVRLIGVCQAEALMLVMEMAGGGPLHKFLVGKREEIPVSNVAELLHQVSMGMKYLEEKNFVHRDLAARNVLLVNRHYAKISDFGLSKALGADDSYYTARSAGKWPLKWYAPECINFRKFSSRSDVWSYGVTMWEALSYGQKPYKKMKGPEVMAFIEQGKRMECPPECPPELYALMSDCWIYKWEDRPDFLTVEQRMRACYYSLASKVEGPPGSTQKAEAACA

[2] = system: TCR-induced IL-2 secretion from hPBL T-cells; experiment: T-cell activation: TCR-induced IL-2 secretion from hPBL T-cells (ELISA); assay type: cell-based; settings: anti-CD3/anti-CD28 stimulation, 20 hours, FIG. 7B, read-out: IC50 inhibition of IL-2 production in human T-cell cultures
Protocol: T-cell activation. Whole blood was obtained from normal donors and human peripheral blood lymphocytes (hPBL) were isolated by ficol-hypaque density centrifugation. T-cells were then purified from the hPBL by negative selection using an R&D column following the manufacturers directions (R&D Systems, Minneapolis, Minn.). A 96-well flat-bottomed plate was coated with 10 μg/ml of goat anti-mouse (GAM)-IgG1 (Caltag, Burlingame, Calif.) in PBS overnight at 4C. The GAM-coated plate was flicked out and anti-CD3 mAb (UCHT-1, Coulter/Immunotech, Miami, Fla.) is added at 0.2 μg/ml in AIMV medium (Gibco, Grand Island, N.Y.) for 3 hr. at 37C. Purified T-cells were pre-incubated at 1×10^5/well in AIM V with or without compound for 30 minutes then transferred to the anti-CD3 capture plate. Finally, anti-CD28 (Pharmingen, San Diego, Calif.) in AIMV (150 ng/ml final) was added to each well. Cells were incubated for 20 hours at 37C in 5% CO2 then supernatants were tested by ELISA for cytokine levels (Endogen, Woburn, Mass.).

Chain of Lck (P06239 whole entry, species assumed): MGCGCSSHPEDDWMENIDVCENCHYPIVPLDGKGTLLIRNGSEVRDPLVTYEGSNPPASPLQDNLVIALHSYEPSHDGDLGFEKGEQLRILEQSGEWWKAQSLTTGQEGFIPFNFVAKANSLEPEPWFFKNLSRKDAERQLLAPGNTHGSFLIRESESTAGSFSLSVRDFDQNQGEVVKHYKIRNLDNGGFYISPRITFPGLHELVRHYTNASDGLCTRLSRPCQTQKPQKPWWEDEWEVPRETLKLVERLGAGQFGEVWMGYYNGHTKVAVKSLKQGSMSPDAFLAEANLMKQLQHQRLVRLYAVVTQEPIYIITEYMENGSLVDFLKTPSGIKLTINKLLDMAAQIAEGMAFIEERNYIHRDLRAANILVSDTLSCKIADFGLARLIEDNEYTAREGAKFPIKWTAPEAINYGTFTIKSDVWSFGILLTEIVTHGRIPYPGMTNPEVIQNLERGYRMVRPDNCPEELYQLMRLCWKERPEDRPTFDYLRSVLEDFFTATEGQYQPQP

In the case of `Cc1ccc(-c2nn(C(C)(C)C)c3ncnc(N)c23)cc1` [PP1], the “inhibitory activity against Lck compared with PP2” value (Lck) is listed as “approximately the same inhibitory activity”.
In the case of `CC(C)(C)n1nc(-c2ccc(Cl)cc2)c2c(N)ncnc21` [PP2], the “inhibition of Lck-dependent phosphorylation of the TCR ζ-chain (p23)” value [1] is given as “dose-dependent inhibition”, the “inhibition of phosphorylation of a 70 kD protein (likely ZAP-70)” value [1] is given as “inhibited” and the IC50 (ZAP-70) is given as ≥ 100 µM. For the same molecule, the IC50 [2] was 0.6 µM.
With `CN[C@@H]1C[C@H]2O[C@@](C)([C@@H]1OC)n1c3ccccc3c3c4c(c5c6ccccc6n2c5c31)C(=O)NC4` [staurosporine] the IC50 ([2]; Homo sapiens, T-cell) was 0.06 µM.

— patent publication US6589758B1, “Crystal of a kinase-ligand complex and methods of use” (priority 2000, dated 2003)
